Entries after “also recorded” stand apart in the source; their conditions may differ.
Key:
Assay type in all cases: in vivo, human
[1] = Study 1: plasma profile following intravitreal injection
From the text: (§1) The secondary objectives were: • To evaluate the plasma profile of the compound of Formula A following intravitreal injection in adult male and female subjects with central involved diabetic macular edema. • To evaluate the pharmacodynamic effect of intravitreal injection of the compound of Formula A in adult male and female subjects with central involved diabetic macular edema.
(§2) Each subject returned on Day 1, 7, 14, 28 and 56 for safety and ophthalmic assessment. Pharmacokinetic assessment was also taken. In addition, the subject was contacted by the Study Site on Day 3 (+1-1 day) by telephone to inquire about the subject's visual wellbeing and to ask about any adverse events.
(§3) Single 100 μL intravitreal injection of: • 1 μg-10 μg/mL of the compound of Formula A • 3 μg-30 μg/mL of the compound of Formula A • […] of the compound of Formula A

[2] = tested on: subjects with center involved diabetic macular edema; experiment: Study 1: pharmacodynamic effect (visual acuity, retinal thickness); conditions: for Mean improvement in visual acuity compared with baseline: single injection
Protocol: as §1
Following the signing of informed consent, subjects attended the clinic where screening assessments were recorded (Clinic Visit 1). When deemed eligible, subjects attended the clinic where baseline measurements were recorded (recorded as Day 0, Clinic Visit 2). Following confirmation of eligibility and the taking of baseline ophthalmic measurements, a single intravitreal injection of the compound of Formula A, was administered to the study eye as per Diabetic Retinopathy Clinical Research Network (DRCR.net) protocol.
as §2, §3
• Best Corrected Visual Acuity as measured by ETDRS EVA • Intraocular pressure • Color vision • Multifocal Electroretinogram (mfERG) • Humphrey Visual Field 24-2 (HVF 24-2) • Treatment-Emergent Adverse Events (TEAEs) • Changes on ophthalmic examination • Clinical laboratory test results • Vital signs • ECG findings

[3] = tested on: subjects with ciDME who have had prior anti-VEGF treatment; experiment: Study 2: local and systemic safety and tolerability
From the text: To evaluate the local and systemic safety and tolerability of monthly dosing of the injections of the compound of Formula A in subjects with ciDME who had had prior anti-VEGF treatment.
This study was a randomized, sham-controlled, double-masked, 3-arm study into efficacy, safety and tolerability of monthly intravitreal injections of the compound of Formula A as a monotherapy in adult subjects with ciDME. The subjects had all had prior anti-VEGF treatment.
The 129 eligible subjects were randomized approximately 1:1:1 into three arms: • 1. Arm 1, N=44: • Received injections of 3 μg/eye (100 μL injection volume at a concentration of 30 μg/mL) of the compound of formula A; • 2. Arm 2, N=41: • Received injections of 6 μg/eye (100 μL injection volume at a concentration of 60 μg/mL) of the compound of formula A; and • 3. Arm 3, N=44: • Received a sham procedure; during a 12-week, double-masked treatment period (a total of 4 doses given at approximately monthly intervals).
Approximately twenty-four (24) hours after each study drug administration or sham procedure on Day 1 and Weeks 4, 8, and 12, subjects were contacted by telephone to evaluate any reported AEs and changes in concomitant medications. In the event of any reported ocular or systemic AEs that were considered by the Investigator to be a possible cause for concern, the subjects returned to the clinic for assessment as soon as possible. • 3. Follow up Phase:
Safety variables of interest in this study are: • AEs; • Ophthalmic and physical findings; • Laboratory test results (clinical chemistry, hematology, and urinalysis); • Vital signs (SBP, DBP, PR, and respiratory rate).

[4] = tested on: subjects with center involved diabetic macular edema; experiment: Study 1: pharmacodynamic effect (visual acuity, retinal thickness); conditions: Day 84, 10 μg dose
[5] = whole study population, no control group

**Q.** With `CCOc1ccc(C[C@@H](NC(=O)c2ccccc2)C(=O)N[C@@H](Cc2ccccc2)C(=O)NCc2ccc(CN)cc2)cc1` [compound of Formula A, N—[(R)-1-[(S)-1-(4-Aminomethyl-benzylcarbamoyl)-2-phenyl-ethylcarbamoyl]-2-(4-ethoxy-phenyl)-ethyl]-benzamide] as the compound, how does the “Time post dosing up to which plasma concentrations were quantifiable” value ([1]; 3 μg/eye dose) read?
**A.** up to 24 hours

**Q.** And the “Time post dosing up to which plasma concentrations were quantifiable” value ([1]; 10 μg/eye)?
**A.** up to 24 hours

**Q.** What about the “Time post injection up to which plasma concentrations were quantifiable” value ([1]; intravitreal injection of 1 μg/eye) of the same compound?
**A.** up to 4 hours

**Q.** And the “Mean improvement in visual acuity compared with baseline” value ([2]; Day 7, average across all dose groups)?
**A.** 0.7 letters

**Q.** What about the “Mean improvement in visual acuity compared with baseline” value ([2]; Day 14, average across all dose groups) of the same compound?
**A.** 1.0 letters

**Q.** And the “Mean improvement in visual acuity compared with baseline” value ([2]; Day 28, average across all dose groups)?
**A.** 1.9 letters

**Q.** What about the “Mean improvement in visual acuity compared with baseline” value ([2]; Day 56, average across all dose groups) of the same compound?
**A.** 2.8 letters

**Q.** What about the “Mean improvement in visual acuity” value ([2]; Day 84, 1 μg dose) of the same compound?
**A.** 3.3 letters

**Q.** What about the “Mean improvement in visual acuity” value ([2]; Day 84, 3 μg dose) of the same compound?
**A.** 2.0 letters

**Q.** What about the “Mean improvement in visual acuity compared with baseline” value ([2]; Day 84, average across all dose groups) of the same compound?
**A.** 4.1 letters

**Q.** And the “Mean retinal thickness post-injection (in words)” value [2, 5]?
**A.** trends of improvement; also recorded: reduction

**Q.** What about the “Mean visual acuity post-injection (in words)” value [2, 5] of the same compound?
**A.** trends of improvement; also recorded: small improvement

**Q.** And the “AEs that led to discontinuation” value ([3]; 6 μg arm)?
**A.** one retinal neovascularization

**Q.** And the “Severity of reported adverse events (AEs)” value ([3]; majority of reported AEs, all arms)?
**A.** mild

**Q.** And the “Subjects in whom the treatment was safe and well-tolerated” value ([3]; monthly intravitreal injections, 3 μg or 6 μg)?
**A.** > 99%

**Q.** What about the “Mean improvement in visual acuity” value [4] of the same compound?
**A.** 5.5 letters

From US20220401390A1, “TREATMENTS OF DIABETIC MACULAR EDEMA AND IMPAIRED VISUAL ACUITY” (KALVISTA PHARMACEUTICALS LIMITED, priority 2019, published 2022)
